According to patent publication US10538490B2, “Benzylaminopyridylcyclopropanecarboxylic acids, pharmaceutical compositions and uses thereof” (Boehringer Ingelheim International GmbH, priority 2016, dated 2020):
Values after ≈ are worked out from the molar mass of the structure shown.

Key:
human GPR40 receptor = human GPR40 receptor (Homo sapiens, UniProt O14842); assay: IP1 accumulation measurements using the IPOne assay system; format: cell-based; conditions: 1321N1 cells stably expressing human GPR40 receptor, stimulation 1 h at 37° C.
Method: IP1 accumulation measurements using the IPOne assay system—1321N1 cells stably expressing human GPR40 receptor (Euroscreen, Belgium) are seeded 24 h before the assay in white 384-well plates in culture medium containing 10% FCS, 1% Na-Pyruvate and 400 μg/mL G418. IPi is assayed according to the manufacturer's description (Cisbio Bioassays, France). In brief, the assay is started by substitution of the culture medium by stimulation buffer (Hepes 10 mM, CaCl2 1 mM, MgCl2 0.5 mM, KCl 4.2 mM, NaCl 146 mM, glucose 5.5 mM and LiCl 50 mM, pH 7.4). Cells are stimulated for 1 h at 37° C., 5% CO2 by addition of the compounds that are diluted in stimulation buffer containing LiCl. Assays are stopped by adding HTRF-conjugates (IP1-d2 and Anti-IP1 cryptate Tb) and lysis buffer, provided by the manufacturer. After an incubation time of 1 h at room temperature plates are measured using an EnVision™, Perkin Elmer. The obtained fluorescence ratios at 665/615 […] are then used to calculate the pEC50 values using Assay Explorer 3.3 Software (Accelrys, Inc.) by interpolation using an IP1 reference curve and subsequent sigmoidal curve fitting allowing for a variable hill slope.

[1] = Chemical stability (degradation kinetics) at pH value of ca. 1.2; format: physicochemical; conditions: pH value of ca. 1.2 (acetonitrile/0.1 M aqueous HCl 2:3), 37° C., HPLC
Method: Degradation kinetics is used to simulate chemical stability of compounds in the acidic part of the gastro intestinal tract. […] Their application as medical drugs to treat human diseases is therefore less restricted and troublesome.
The chemical stability of the compounds of the invention at pH value of ca. 1.2 is determined as follows:
Compound is dissolved in an HPLC vial either in a mixture of acetonitrile/0.1 M aqueous HCl (2:3; pH ca. 1.2) or in a mixture of acetonitrile/Mcllvaine buffer pH 7.4 (2:3) to get a concentration of approximately 0.25 mg/ml. The vial was then transferred into an HPLC autosampler system and maintained at a temperature of 37° C. A first sample is taken and injected immediately into a standard HPLC system with a UV DAD detector. Further samples are injected after 2, 4, 6, 8 and 10 hours. Amount of degraded compound is measured by determining the recovery rate of compound [%] for each injection using an HPLC standard gradient method. Therefore the peak area of the main peak for the first injection (AUt0) is determined and set as 100%. Peak area of the main peak is determined also for the further injections (AUtn, n=2, 4, 6, 8, 10) and expressed as fraction of […] [%].

[2] = Aqueous solubility in buffer versus acetonitrile/water (1/1), LC-UV; format: physicochemical; conditions: kinetic from dmso stock, buffer pH 2.2, 24 h shaking, 2.5% DMSO, ">" if more than 90% dissolved
Method: The aqueous solubility of the compounds of the invention is determined by comparing the amount dissolved in buffer to the amount in an acetonitrile/water (1/1) solution. Starting from a 10 mM DMSO stock solution aliquots are diluted with acetonitrile/water (1/1) or buffer, respectively. After 24 h of shaking, the solutions are filtrated and analyzed by LC-UV. The amount dissolved in buffer is compared to the amount in the acetonitrile solution.
Solubility is usually being measured from 0.001 to 0.125 mg/mL at a DMSO concentration of 2.5%. If more than 90% of the compound is dissolved in buffer, the value is marked with “>”.

Chain of human GPR40 receptor (O14842 whole entry): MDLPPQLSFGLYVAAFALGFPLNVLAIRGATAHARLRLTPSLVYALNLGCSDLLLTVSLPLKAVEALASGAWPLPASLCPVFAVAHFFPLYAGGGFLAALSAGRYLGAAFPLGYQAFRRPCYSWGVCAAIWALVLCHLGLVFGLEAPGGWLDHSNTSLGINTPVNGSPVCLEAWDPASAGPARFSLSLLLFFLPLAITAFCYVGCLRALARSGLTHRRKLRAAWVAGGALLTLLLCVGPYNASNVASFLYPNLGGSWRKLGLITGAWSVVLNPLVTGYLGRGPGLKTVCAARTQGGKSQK

Row | EC50 (human GPR40 receptor) [nM] | Amount of degradation after 2 h [1] [%] | solubility at 24 h [2] [µg/mL] | Structure (SMILES)
1 | – | 2.5 | < 1 | Cc1c(C#N)cccc1-c1ccc(F)c2c1CC[C@H]2Oc1ccc([C@H]2C[C@@H]2C(=O)O)cc1 [WO 2013/178575 Example 54, reference compound]
2 | 20 | <0.5 | 102 (≈ 216 µM) | Cc1cc(-c2nnn(C)n2)cc(C)c1-c1ccc(F)c(CNc2ccc([C@H]3C[C@@H]3C(=O)O)cn2)c1 [Example 48]
3 | – | 3 | < 1 | Cc1cc(C(=O)NCC(C)(C)O)cc(C)c1-c1ccc(F)c2c1CC[C@H]2Oc1ccc([C@H]2C[C@@H]2C(=O)O)cc1 [WO 2013/178575 Example 15, reference compound]
4 | 72 | – | 82 (≈ 188 µM) | CCc1cccc(CC)c1-c1cc(CNc2ccc([C@H]3C[C@@H]3C(=O)O)cn2)c(F)cc1F [Example 93]
5 | 94 | – | 99 (≈ 208 µM) | Cc1cc(O[C@H]2CCOC2)cc(C)c1-c1ccc(F)c(CNc2ccc([C@H]3C[C@@H]3C(=O)O)cn2)c1 [Example 38]
6 | – | 8 | < 1 | Cc1cc(OCCC(C)(C)O)cc(C)c1-c1ccc(F)c2c1CC[C@H]2Oc1ccc([C@H]2C[C@@H]2C(=O)O)cc1 [WO 2013/178575 Example 17, reference compound]
7 | 34 | – | 30 (≈ 62.2 µM) | O=C(O)[C@H]1C[C@@H]1c1ccc(NCc2ccc(C(F)(F)F)c(-c3ccc(OCC4CC4)cc3)c2)nc1 [Example 7, (1S,2S)-2-{6-[(4′-Cyclopropylmethoxy-6-trifluoromethyl-biphenyl-3-ylmethyl)-amino]-pyridin-3-yl}-cyclopropanecarboxylic acid]
8 | 42 | – | 83 (≈ 163 µM) | Cc1cc(OCCC(C)(C)O)cc(C)c1-c1cc(CNc2ccc([C@H]3C[C@@H]3C(=O)O)cn2)c(F)cc1F [Example 2]
9 | 41 | – | 83 (≈ 186 µM) | Cc1ccc(Cl)c(-c2ccc(F)c(CNc3ccc([C@H]4C[C@@H]4C(=O)O)cn3)c2)c1Cl [Example 25]
10 | – | 5 | – | Cc1cc(OCCCS(C)(=O)=O)cc(C)c1-c1ccc(F)c2c1CC[C@H]2Oc1ccc([C@H]2C[C@@H]2C(=O)O)cc1 [WO 2013/178575 Example 11]
11 | 31 | – | 84 (≈ 181 µM) | Cc1ccc(Cl)c(-c2cc(CNc3ccc([C@H]4C[C@@H]4C(=O)O)cn3)c(F)cc2F)c1Cl [Example 67]
12 | 131 | <0.5 | > 120 | Cc1cccc(C)c1-c1ccc(F)c(CNc2ccc([C@H]3C[C@@H]3C(=O)O)cn2)c1 [Example 18]
13 | 16 | – | 103 (≈ 211 µM) | Cc1cc(-c2ccnn2C)cc(C)c1-c1cc(CNc2ccc([C@H]3C[C@@H]3C(=O)O)cn2)c(F)cc1F [Example 92]
14 | – | 8 | – | Cc1cccc(C)c1-c1ccc(F)c2c1CC[C@H]2Oc1ccc(C2CC2C(=O)O)cc1 (stereo partly shown) [WO 2013/178575 Example 33]
15 | 79 | – | 91 (≈ 216 µM) | COc1cc(C)c(-c2ccc(F)c(CNc3ccc([C@H]4C[C@@H]4C(=O)O)cn3)c2)c(C)c1 [Example 26]
16 | 15 | – | 78 (≈ 162 µM) | Cc1cnc(-c2cc(C)c(-c3ccc(F)c(CNc4ccc([C@H]5C[C@@H]5C(=O)O)cn4)c3)c(C)c2)nc1 [Example 53]
17 | 877 | – | 112 (≈ 248 µM) | COc1cc(OC)c(-c2ccc(F)c(CNc3ccc([C@H]4C[C@@H]4C(=O)O)cn3)c2)c(OC)c1 [Example 30]

Row | Structure (SMILES) | EC50 (human GPR40 receptor) [nM] | Amount of degradation after 2 h [1] [%] | solubility at 24 h [2] [µg/mL]
18 | CC(C)(O)CCOc1ccc(-c2cc(CNc3ccc([C@H]4C[C@@H]4C(=O)O)cn3)ccc2C(F)(F)F)cc1 [Example 4, (1S,2S)-2-(6-{[4′-(3-Hydroxy-3-methyl-butoxy)-6-trifluoromethyl-biphenyl-3-ylmethyl]-amino}-pyridin-3-yl)-cyclopropanecarboxylic Acid] | 15 | <0.5 | 92 (≈ 179 µM)
